Assay results published in US20180344690A1, “Methods and Formulation for Enhancing Response to Radiotherapy” (The Board of Trustees of the Leland Stanford Junior …, priority 2017, published 2018).
Like-named read-outs stand apart in the source and are kept apart here.

Experiments:
clinical = conditions: human, in vivo
Excerpt: (§1) Patients underwent dynamic susceptibility contrast perfusion MRI (DSC-MRI) for quantification of relative cerebral blood volume (rCBV) values by region-of-interest analysis.

glioblastoma [1] = experiment: clinical
Excerpt: as §1

[2] = cited from earlier work; for mean AUC from time 0 to 24 hours postdose, higher than in subjects with normal renal function: single 240 μg/kg SC
[3] = cited from earlier work
AML and MDS = conditions: cited from earlier work
[4] = cited from earlier work; remark: listed apart in the source
glioblastoma [5] = tested on: glioblastoma
Description: Normalized relative cerebral blood volume (rCBV) ratios were calculated by the mean rCBV within the 95% isodose radiation field one month post-radiation as compared to contralateral white matter outside of the radiation field.

[6] = tested on: human serum albumin and 1-acid glycoprotein; conditions: cited from earlier work
MM = conditions: cited from earlier work
CD34+ stem cells [7] = conditions: cited from earlier work
CD34+ cells = conditions: cited from earlier work
CXCR4 = CXCR4 (Homo sapiens, UniProt P61073); conditions: cited from earlier work
Chain of CXCR4 (P61073 whole entry): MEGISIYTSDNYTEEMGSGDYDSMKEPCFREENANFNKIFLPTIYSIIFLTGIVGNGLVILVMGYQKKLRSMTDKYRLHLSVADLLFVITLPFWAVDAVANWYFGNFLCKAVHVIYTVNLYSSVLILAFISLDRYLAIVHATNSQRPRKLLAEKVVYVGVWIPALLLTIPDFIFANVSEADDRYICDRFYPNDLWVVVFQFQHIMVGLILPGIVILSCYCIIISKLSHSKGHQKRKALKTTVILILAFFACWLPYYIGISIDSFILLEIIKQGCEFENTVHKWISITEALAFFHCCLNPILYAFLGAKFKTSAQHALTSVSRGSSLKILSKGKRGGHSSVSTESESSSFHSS

[8] = tested on: chronic lymphocytic leukemia (CLL); conditions: cited from earlier work
[9] = cited from earlier work; remark: listed apart in the source
[10] = up to 320 μg/kg, healthy volunteers; cited from earlier work
CD34+ stem cells [11] = conditions: cited from earlier work; remark: listed apart in the source
CML = conditions: cited from earlier work
[12] = tested on: BCR-ABL(+) leukemia (CML); conditions: cited from earlier work
APL = conditions: cited from earlier work
in vivo = conditions: human
AML = conditions: cited from earlier work
[13] = 23 evaluable patients, with bortezomib
[14] = cells collected by Plerixafor plus G-CSF

With `c1cc(CN2CCCNCCNCCCNCC2)ccc1CN1CCCNCCNCCCNCC1` [Plerixafor] the concentration at 7 days (clinical) was at least 100 ng/mL, the “rCBV in the tumor bed compared to the postoperative pre-RT scan” value (glioblastoma [1]; DSC-MRI at 1 and 6 months post-RT, P<0.02, one way ANOVA) was “lower rCBV” and the patients alive (glioblastoma [1]; currently) was 7 of 9. The “dose limiting toxicities (DLTs)” value (glioblastoma [1]; human, in vivo) was “no DLTs observed”, the “longest survival since diagnosis” value (glioblastoma [1]; human, in vivo) was 18 months and the “recommended phase II dose” value (glioblastoma [1]; human, in vivo, iv, 4 weeks) was 16.6 µg/kg/h. For the same molecule, the “effect of renal impairment on maximal plasma concentrations” value ([2]; human, in vivo) was “no effect”, the “mean AUC from time 0 to 24 hours postdose, higher than in subjects with normal renal function” value (shortened to “mean AUC”) ([2]; mild renal impairment) was 7% and the “mean AUC” value ([2]; moderate renal impairment) was 32%. For the same molecule, the “mean AUC” value ([2]; severe renal impairment) was 39%, the safety profile ([2]; subjects with renal impairment vs controls) was “similar” and the Plerixafor clearance ([2]; subjects with renal impairment, positively correlated with creatinine clearance) was “reduced”. For the same molecule, the “Sinus tachycardia (all Grade 1)” value ([3]; 400 and 480 μg/kg doses) was “observed in most subjects”, the maximum tolerated dose ([3]; doses of up to 480 μg/kg SC and IV in healthy volunteers and cancer patients) was “has not been established” and the common adverse events ([3]; doses up to 480 μg/kg) was “diarrhea, injection site erythema, perioral numbness, sinus tachycardia, headache, nausea, abdominal distention and injection site pain”. For the same molecule, the “early death due to complications from intracranial hemorrhage” value (AML and MDS; 1 patient) was 4%, the “treatment failure due to persistent disease” value (AML and MDS; 1 patient) was 4% and the “Grade I-II GVHD” value (AML and MDS; 10/27 patients) was 37%. For the same molecule, the “treatment failure due to relapsed disease” value (AML and MDS; 10 patients) was 37%, the “patients with common grade 3 adverse events” value (AML and MDS; 24/27, neutropenic fever, infections, or rash) was 89% and the “Median progression-free survival (PFS)” value (AML and MDS; all patients, 95% CI: 18.1-33.9 wks) was 26.6 wks. For the same molecule, the “Grade III-IV GVHD” value (AML and MDS; human, in vivo, iv) was “no occurrences”, the “toxicities ascribed to the G-CSF/Plerixafor component of the regimen” value (AML and MDS; human, in vivo) was “no toxicities ascribed” and the “patients achieving a CR” value (AML and MDS; of the 19 patients with active disease at study entry) was 18. The “platelet recovery (plt >20 k/mm3), median” value (AML and MDS; range 9-74 d) was 12 days, the “neutrophil recovery (ANC >500/mm3), median” value (AML and MDS; range 10-19) was 12.5 days and the “Median progression-free survival (PFS)” value (AML and MDS; relapsed patients, 95% CI: 12.1-26.6 wks) was 15.7 wks. The “blood flow to a tumor” value (U251 human GBM cells; after 40 days, radiotherapy and Plerixafor compared to radiotherapy alone (FIG. 5A)) was “lower blood flow”, the tumor size (U251 human GBM cells; over 80 days, radiation and Plerixafor (continuous infusion) compared to other treatment groups (FIG. 5B, 5C)) was “reduced tumor size” and the “Cmax and AUC0-∞ across the four dose levels” value ([4]; 10, 20, 40, 80 μg/kg) was “dose proportionality”. For the same molecule, the Cmax ([4]; IV, 40 μg/kg) was 292.8±67.0, the Cmax ([4]; IV, 80 μg/kg) was 503.9±29.6 and the Cmax ([4]; SC, 40 μg/kg) was 123.5±27.9. The Cmax ([4]; SC, 80 μg/kg) was 238.3±17.3, the terminal elimination half-life ([4]; following a single dose, bi-exponential elimination from plasma) was 3.5 to 5 h and the “time of peak plasma levels” value ([4]; following subcutaneous administration) was 0.5 to 1 h. For the same molecule, the bioavailability ([4]; human, in vivo) was 80-90%, the “rate of out of field recurrence” value (glioblastoma [5]; as of Feb. 7, 2017, expected 20%, p<0.03, Fisher's exact test) was 77% and the “rCBV measured by DSC-MRI within the 95% isodose field” value (glioblastoma [5]; one month after radiation therapy, patients receiving Plerixafor compared to control, p<0.02) was “significant reduction”. For the same molecule, the “rCBV out of the radiation field” value (glioblastoma [5]; one-month post radiation therapy, Plerixafor compared to control patients) was “similar”, the protein binding [6] was “extensively protein bound” and the MR (MM; [13]) was 13%. The “complete response (CR)” value (MM; [13]) was 4%, the “overall response rate (including MR)” value (MM; [13]) was 22% and the “progressive disease (PD) as best response” value (MM; [13]) was 13%. For the same molecule, the “very good partial response (VGPR)” value (MM; [13]) was 4%, the “Dose limiting toxicities including insomnia, restlessness, and psychosis” value (MM; dose level 6 (Plerixafor 400 μg/kg and bortezomib 1.3 mg/m^2)) was “observed in two patients” and the “de-adhesion of MM cells and accessory cells” value (MM; in vivo) was “transient de-adhesion of MM cells and accessory cells in vivo in most of the patients”. For the same molecule, the “Grade 3 anemia” value (MM; with bortezomib) was 10%, the “Grade 3 bone fracture due to myeloma bone disease” value (MM; with bortezomib) was 10% and the “Grade 3 hypercalcemia” value (MM; with bortezomib) was 10%. The “Grade 3 hyponatremia” value (MM; with bortezomib) was 10%, the “Grade 3 hypophosphatemia” value (MM; with bortezomib) was 20% and the “Grade 3 lymphopenia” value (MM; with bortezomib) was 40%. For the same molecule, the “grade 4 toxicities” value (MM; with bortezomib) was “no grade 4 toxicities”, the “tolerability of the combination” value (MM; with bortezomib) was “well tolerated” and the “proportion of patients with MM able to mobilize the target (6×10^6 cells/kg) CD34+ cells” value (CD34+ stem cells [7]; Plerixafor 240 μg/kg added to G-CSF compared with G-CSF alone) was “significantly increased the proportion of patients”. The “apheresis days to reach target” value (CD34+ stem cells [7]; Plerixafor added to G-CSF) was “significantly fewer apheresis days”, the “patients achieving ≥5×10^6 CD34+ cells/kg” value (CD34+ cells; Plerixafor plus G-CSF compared to G-CSF alone) was “More patients” and the “CD34+ cells mobilized in patients who mobilized poorly with G-CSF alone” value (CD34+ cells; Plerixafor plus G-CSF, nine patients, all patients) was > 2×10^6 CD34+ cells/kg. For the same molecule, the “median day of platelet engraftment” value (CD34+ cells; [14]) was 17 days, the “median day of polymorphonuclear leukocyte (PMN) engraftment” value (CD34+ cells; [14]) was 10 days and the “drug-related serious or unexpected adverse effects” value (CD34+ cells; human, in vivo) was “no drug-related serious adverse effects or unexpected adverse effects”. For the same molecule, the “inhibition of the binding of SDF-1a (CXCL12) to CXCR4” value (CXCR4) was “reversible inhibitor”, the “mobilization of CLL cells” value ([8]; 80, 160, 240, 320 μg/kg, preliminary results) was “mobilized to the peripheral blood in a dose-dependent fashion” and the “tolerability of the combination of Plerixafor and rituximab” value ([8]; CLL patients with WBC <50×109/L) was “well tolerated”. For the same molecule, the dose limiting toxicities ([8]; with rituximab) was “no dose limiting toxicities were reported”, the “most common adverse events” value ([8]; with rituximab) was “nausea, fatigue, chills, and diarrhea” and the remissions ([8]; with rituximab) was “partial remissions were seen in a proportion of patients”. For the same molecule, the circulating neutrophils (days 4, 8, 15, 22, 29 during infusion vs Screening (FIG. 8A)) was “increase of neutrophils”, the circulating monocytes (days 4, 8, 15, 22, 29 during infusion vs Screening (FIG. 8B)) was “increase in monocytes” and the “adverse events that occurred more frequently with Plerixafor than placebo” value ([9]; G-CSF plus Plerixafor 240 μg/kg SC) was “insomnia, headache, dizziness, diarrhea, nausea, flatulence, abdominal pain, vomiting, abdominal distention, dry mouth, stomach discomfort, constipation, dyspepsia, hypoaesthesia oral, arthralgia, musculoskeletal pain, hyperhidrosis, erythema, injection site reactions, fatigue, and malaise”. For the same molecule, the tolerability ([9]; Plerixafor 240 μg/kg in conjunction with G-CSF, NHL or MM) was “well-tolerated”, the “PMN and PLT engraftment of mobilized hematopoietic stem cells” value ([9]; Plerixafor and G-CSF compared to G-CSF alone, both trials) was “equally capable of prompt and durable PMN and PLT engraftment” and the “pharmacokinetics over the tested dose range” value [10] was “linear pharmacokinetics”. The “proportion of patients with NHL able to mobilize minimum (2×10^6 cells/kg) and target (5×10^6 cells/kg) CD34+ cells” value (CD34+ stem cells [11]; Plerixafor 240 μg/kg added to G-CSF) was “significantly increased the proportion of patients”, the “apheresis days to reach both targets” value (CD34+ stem cells [11]; Plerixafor added to G-CSF) was “significantly fewer apheresis days” and the “leukemia burden in mice” value (CML; added to nilotinib, vs nilotinib alone) was “significantly reduced”. For the same molecule, the “mobilization of leukemic cells” value (CML; in vivo) was “mobilize leukemic cells in vivo”, the “sensitivity to the tyrosine kinase inhibitors Imatinib and Nilotinib” value [12] was “confer added sensitivity” and the tumor cell chemotaxis [12] was “inhibit tumor cell chemotaxis”. For the same molecule, the “anti-tumor effect of Plerixafor alone” value (APL; in these experiments (leukemia models)) was “no detectable anti-tumor effect”, the median overall survival (APL; untreated control 18 days, cytarabine vs cytarabine+Plerixafor p<0.0006) was 19 days and the MTD (in vivo) was about 1.8 mg/kg. The Plerixafor unrelated deaths (AML; 4 patients, 240 μg/kg) was 17%, the “complete response (CR)” value (AML; 14 of 21 patients with available data) was 67% and the DLTs (AML; 240, 320, 400, 480 μg/kg IV) was “No DLTs have been reported”. For the same molecule, the “patients with adverse events at least possibly related to Plerixafor” value (AML; Eighteen patients) was 86%, the “patients with Grade 3 Plerixafor-related AEs” value (AML; Four patients) was 19% and the “patients with Grade 4 related AEs” value (AML; One patient, 480 μg/kg cohort, thrombocytopenia and asymptomatic pulmonary embolism) was 5%. For the same molecule, the “time of peak PB AML blasts” value (AML; day 2, after administration) was 2 to 4 h, the “increase in PB AML blasts, mean” value (AML; day 7) was 1.51 fold and the “median time to neutrophil (0.5×109/L) recovery for responders” value (AML; in vivo) was 19.5 (range 13-35) days. The “median time to platelet (100×109/L) recovery for responders” value (AML; in vivo) was 21 (range 17-37) days, the “rise in PB AML blasts, mean increase” value (AML; infusion on day 2) was 3.01 fold and the “severity of the majority of related adverse events” value (AML; mainly gastrointestinal disorders) was “grade ½”.
